The target in test [1] is T1, full-length beta-Catenin (Uniprot ID P35222) (Homo sapiens, UniProt P35222).
T1 construct: 10 nM full-length beta-Catenin (Uniprot ID P35222)
T1 sequence (P35222 1-781): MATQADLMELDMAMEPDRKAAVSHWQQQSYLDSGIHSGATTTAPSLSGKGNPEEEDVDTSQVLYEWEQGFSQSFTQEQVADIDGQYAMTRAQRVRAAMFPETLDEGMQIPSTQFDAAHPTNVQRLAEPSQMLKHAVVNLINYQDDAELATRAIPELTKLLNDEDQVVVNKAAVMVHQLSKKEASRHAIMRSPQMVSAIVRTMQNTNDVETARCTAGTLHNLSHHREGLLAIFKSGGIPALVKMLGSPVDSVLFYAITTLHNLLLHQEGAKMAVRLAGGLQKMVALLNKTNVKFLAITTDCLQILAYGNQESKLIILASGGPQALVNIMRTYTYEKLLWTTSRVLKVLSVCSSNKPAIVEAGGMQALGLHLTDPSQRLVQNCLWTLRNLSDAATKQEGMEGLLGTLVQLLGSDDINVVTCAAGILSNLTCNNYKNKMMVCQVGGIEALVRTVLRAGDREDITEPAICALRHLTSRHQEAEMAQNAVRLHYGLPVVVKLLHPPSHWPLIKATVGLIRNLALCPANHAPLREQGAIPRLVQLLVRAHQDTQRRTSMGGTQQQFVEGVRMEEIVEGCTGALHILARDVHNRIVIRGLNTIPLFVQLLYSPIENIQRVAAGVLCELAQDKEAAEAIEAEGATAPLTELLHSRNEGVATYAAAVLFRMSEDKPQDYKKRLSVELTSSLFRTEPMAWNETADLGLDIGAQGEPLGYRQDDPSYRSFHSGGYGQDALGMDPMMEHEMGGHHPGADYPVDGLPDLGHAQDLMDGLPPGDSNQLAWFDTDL
The test can be described thus: Fluorescence polarization IC50 (beta-catenin / 5FAM-TCF4 10-53 competition). The class given is binding. Particulars: fluorescence polarization; read-out: beta-Catenin FP IC50. (In fluorescence polarisation assays a small probe gives low polarisation when free and higher when bound to something large.)

The target in test [2] is T2, beta-catenin/TCF4 engagement (Homo sapiens, UniProt P35222).
T2 construct: expressed in transfected cells; host or cells: HEK293
T2 sequence (P35222 1-781): T1 sequence (P35222 1-781)
Nature of the test: Nano-BRET target engagement assay (B-cat-Halo & TCF4-Luc in HEK293 cells). It counts as cell-based. Particulars: absolute IC50; read-out: NanoBRET Abs IC50.

On to `COCCC(=O)N1CCC[C@]12CC=CCCCC1(CCCC=CCCCOC(=O)N3CC[C@@](C(=O)N[C@@H](Cc4ccccc4Cl)C(=O)N[C@@H](Cc4csc5ccccc45)C(=O)N[C@@H](C(N)=O)[C@H](C)O)(C3)NC(=O)[C@H](CC(N)=O)NC(=O)[C@H](Cc3ccccc3)NC(=O)[C@H](C)NC(=O)[C@H](C)NC(=O)[C@H](CC(=O)O)NC(=O)[C@H](CC(=O)O)NC1=O)NC(=O)[C@H](CC(C)(C)C)NC(=O)[C@H](CC(=O)O)NC2=O` (stereo partly drawn) [I-1259, MeOPr-PL3-Asp-Npg-B5-Asp-Asp-Ala-Ala-Phe-Asn-PyrS2-2C1F-BztA-dThr-NH2], for which the half-maximal inhibitory concentration (IC50) (commonly the point on the concentration scale where inhibition reaches its midpoint) in test [1] was found to be 10 nM; in test [2] it was 18100 nM.
For `CC(=O)N1CCC[C@]12CC=CCCCC1(CCCC=CCCCOC(=O)N3CC[C@@](C(=O)N[C@@H](Cc4ccccc4)C(=O)N[C@@H](Cc4csc5ccccc45)C(=O)N[C@@H](CO)C(N)=O)(C3)NC(=O)[C@H]([C@@H](C)O)NC(=O)[C@H](Cc3cccc(C(F)(F)F)c3)NC(=O)[C@H](C)NC(=O)[C@H](C)NC(=O)[C@H]([C@@H](C)O)NC(=O)[C@H](CC(=O)O)NC1=O)NC(=O)[C@H](CC(C)(C)C)NC(=O)[C@H](CC(=O)O)NC2=O` (stereo partly drawn) [I-1268, Ac-PL3-Asp-Npg-B5-Asp-Thr-Ala-Ala-3F3MeF-Thr-PyrS2-Phe-BztA-Ser-NH2] the same measures were 198 nM and 28400 nM.
As for `CC(=O)N1CCC[C@]12CC=CCCCC1(CCCC=CCCCOC(=O)N3CC[C@@](C(=O)N[C@@H](Cc4ccccc4Cl)C(=O)N[C@@H](Cc4csc5ccccc45)C(=O)N[C@@H](CCC(N)=O)C(N)=O)(C3)NC(=O)[C@H](CC(C)C)NC(=O)[C@H](Cc3ccccc3)NC(=O)[C@H](C)NC(=O)[C@H](CCCCNC(C)C)NC(=O)[C@H](CC(=O)O)NC(=O)[C@H](CC(=O)O)NC1=O)NC(=O)[C@H](CC(C)(C)C)NC(=O)[C@H](CC(=O)O)NC2=O` (stereo partly drawn) [I-1275, Ac-PL3-Asp-Npg-B5-Asp-Asp-iPrLys-Ala-Phe-Leu-PyrS2-2C1F-BztA-Gln-NH2], the IC50 was 9 nM in test [1] and 27800 nM in test [2].
For the molecule `CC(=O)N1CCC[C@]12CC=CCCCC1(CCCC=CCCCOC(=O)N3CC[C@@](C(=O)N[C@@H](Cc4ccccc4Cl)C(=O)N[C@@H](Cc4csc5ccccc45)C(=O)N[C@H](C(N)=O)[C@@H](C)O)(C3)NC(=O)[C@H](CC(C)C)NC(=O)[C@H](Cc3ccccc3)NC(=O)[C@H](C)NC(=O)[C@H](CCCCNC(C)C)NC(=O)[C@H](CC(=O)O)NC(=O)[C@H](CC(=O)O)NC1=O)NC(=O)[C@H](CC(C)(C)C)NC(=O)[C@H](CC(=O)O)NC2=O` (stereo partly drawn) [I-1276, Ac-PL3-Asp-Npg-B5-Asp-Asp-iPrLys-Ala-Phe-Leu-PyrS2-2C1F-BztA-Thr-NH2], the IC50 was 10 nM in test [1] and above 20000 nM in test [2].
The corresponding values for `CC(=O)N1CCC[C@]12CC=CCCCC1(CCCC=CCCCOC(=O)N3CC[C@@](C(=O)N[C@@H](Cc4ccccc4Cl)C(=O)N[C@@H](Cc4csc5ccccc45)C(=O)N[C@@H](CC(C)C)C(N)=O)(C3)NC(=O)[C@H](CC(C)C)NC(=O)[C@H](Cc3ccccc3)NC(=O)[C@H](C)NC(=O)[C@H](CCCCNC(C)C)NC(=O)[C@H](CC(=O)O)NC(=O)[C@H](CC(=O)O)NC1=O)NC(=O)[C@H](CC(C)(C)C)NC(=O)[C@H](CC(=O)O)NC2=O` (stereo partly drawn) [I-1277, Ac-PL3-Asp-Npg-B5-Asp-Asp-iPrLys-Ala-Phe-Leu-PyrS2-2C1F-BztA-Leu-NH2] are 17 nM and above 20000 nM.
On to `CC(=O)N1CCC[C@]12CC=CCCCC1(CCCC=CCCCCCC[C@@](C)(C(=O)N[C@@H](Cc3ccccc3)C(=O)N[C@@H](Cc3csc4ccccc34)C(=O)N[C@@H](CCC(N)=O)C(N)=O)NC(=O)[C@H](CCO)NC(=O)[C@H](Cc3ccccc3)NC(=O)[C@H](C)NC(=O)[C@H](C)NC(=O)[C@H](CC(=O)O)NC(=O)[C@H](CC(=O)O)NC1=O)NC(=O)[C@H](CC(C)(C)C)NC(=O)[C@H](CC(=O)O)NC2=O` (stereo partly drawn) [I-1388, Ac-PL3-Asp-Npg-B5-Asp-Asp-Ala-Ala-Phe-Hse-S8-Phe-BztA-Gln-NH2], for which the half-maximal inhibitory concentration (IC50) in test [1] came out at 18 nM; in test [2], 11300 nM.

These data come from patent publication US20240116985A1, “STAPLED PEPTIDES AND METHODS THEREOF” (priority 2020, published 2024).
